According to US11034692B1 (Genentech, Inc., priority 2017, dated 2021):

Target: HPK1 (Homo sapiens, UniProt Q92918)
Test: HPK1 Lantha Binding Assay ("Lanth")
Settings: Table B1-1, read-out: HPK1 Ki (μM) (Lanth)
Outline: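 TR-FRET tracer displacement with 2 nM GST-tagged kinase, 2 nM Eu-anti-GST antibody and 15 nM Tracer222 at 23 C. Enzyme–antibody preincubated 1 h with compound, then tracer added for 1 h; 340 nm excitation, 615/665 nm emission. Ki from Morrison fit over an 11-point 5-fold dilution.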

Chain of HPK1 (Q92918 whole entry, looked up): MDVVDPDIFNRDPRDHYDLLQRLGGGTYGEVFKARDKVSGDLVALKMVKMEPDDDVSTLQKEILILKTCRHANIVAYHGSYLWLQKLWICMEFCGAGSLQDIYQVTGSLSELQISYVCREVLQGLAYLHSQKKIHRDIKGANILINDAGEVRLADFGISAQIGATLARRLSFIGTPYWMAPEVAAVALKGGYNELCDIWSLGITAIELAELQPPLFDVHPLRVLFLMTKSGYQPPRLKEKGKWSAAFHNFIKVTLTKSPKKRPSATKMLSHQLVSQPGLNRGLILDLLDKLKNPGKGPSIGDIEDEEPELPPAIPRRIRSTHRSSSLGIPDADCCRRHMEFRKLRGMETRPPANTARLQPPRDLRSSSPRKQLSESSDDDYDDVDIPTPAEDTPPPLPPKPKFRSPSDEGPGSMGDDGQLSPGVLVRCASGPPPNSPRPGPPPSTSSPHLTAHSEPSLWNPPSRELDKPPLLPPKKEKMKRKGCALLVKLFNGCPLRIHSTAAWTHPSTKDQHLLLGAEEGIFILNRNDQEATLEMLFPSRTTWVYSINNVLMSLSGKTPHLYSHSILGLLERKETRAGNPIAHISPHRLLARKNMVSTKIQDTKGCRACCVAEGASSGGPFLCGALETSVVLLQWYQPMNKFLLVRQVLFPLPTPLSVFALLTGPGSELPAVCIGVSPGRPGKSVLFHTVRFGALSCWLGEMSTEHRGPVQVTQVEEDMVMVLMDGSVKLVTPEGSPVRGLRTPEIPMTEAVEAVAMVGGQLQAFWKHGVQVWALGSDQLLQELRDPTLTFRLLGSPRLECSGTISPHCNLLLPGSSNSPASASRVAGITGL

Compound	Ki [nM]
Cc1cc(N2CCC(N)C2)ncc1-c1cc2cc(NC(=O)C3CC3F)ncc2c(N)n1 (racemic) [Compound 179, (±)-cis-N-[8-amino-6-[6-[(3S)-3-aminopyrrolidin-1-yl]-4-methyl-3-pyridyl]-2,7-naphthyridin-3-yl]-2-fluoro-cyclopropanecarboxamide]	2.9
CNC(=O)c1c(C)c(-c2cc3cc(NC(=O)[C@H]4C[C@@H]4C#N)ncc3c(N)n2)c(C)n1C (racemic) [Compound 180, (±)-trans-4-[1-amino-6-[[trans-2-cyanocyclopropanecarbonyl]amino]-2,7-naphthyridin-3-yl]-N,1,3,5-tetramethyl-pyrrole-2-carboxamide]	44
N#C[C@H]1C[C@@H]1C(=O)Nc1cc2cc(-c3cnccc3CCO)nc(N)c2cn1 (racemic) [Compound 191, (±)-trans-N-(8-amino-6-(4-(2-hydroxyethyl)pyridin-3-yl)-2,7-naphthyridin-3-yl)-2-cyanocyclopropanecarboxamide]	2.7
Cc1ccncc1-c1nc(N)c2cnc(NC(=O)C3CC3)cc2c1C1=CC(O)CC1 (racemic) [Compound 204, N-(8-amino-5-(3-hydroxycyclopent-1-enyl)-6-(4-methylpyridin-3-yl)-2,7-naphthyridin-3-yl)cyclopropanecarboxamide]	0.99
Cc1ccncc1-c1nc(N)c2cnc(NC(=O)[C@@H]3C[C@H]3CC#N)cc2c1C (racemic) [Compound 205, (+/−)-trans-N-(8-amino-5-methyl-6-(4-methylpyridin-3-yl)-2,7-naphthyridin-3-yl)-2-(cyanomethyl)cyclopropanecarboxamide]	0.0881
Cc1ccncc1-c1nc(N)c2cnc(NC(=O)[C@H]3C[C@@H]3CC#N)cc2c1Br (racemic) [Compound 210, (+/−)-N-(8-amino-5-bromo-6-(4-methylpyridin-3-yl)-2,7-naphthyridin-3-yl)-2-(cyanomethyl)cyclopropanecarboxamide]	0.258
Cc1ccncc1-c1cc2cc(NC(=O)[C@@H]3C[C@H]3CC#N)ncc2c(N)n1 (racemic) [Compound 212, (+/−)-trans-N-(8-amino-6-(4-methylpyridin-3-yl)-2,7-naphthyridin-3-yl)-2-(cyanomethyl)cyclopropanecarboxamide]	0.685
Cc1ccncc1-c1cc2cc(Nc3cnn(C(C)CO)c3)ncc2c(N)n1 (racemic) [Compound 213, (+/−)-2-(4-(8-amino-6-(4-methylpyridin-3-yl)-2,7-naphthyridin-3-ylamino)-1H-pyrazol-1-yl)propan-1-ol]	0.957
CNc1cncc(-c2cc3cc(NC(=O)[C@@H]4C[C@@H]4F)ncc3c(N)n2)c1C (racemic) [Compound 216, (+/−)-cis-N-(8-amino-6-(4-methyl-5-(methylamino)pyridin-3-yl)-2,7-naphthyridin-3-yl)-2-fluorocyclopropanecarboxamide]	3.53
CC(=O)N1CCC(n2cc(Nc3cc4cc(-c5cnccc5C)nc(N)c4cn3)cn2)C1 (racemic) [Compound 218, (+/−)-1-(3-(4-(8-amino-6-(4-methylpyridin-3-yl)-2,7-naphthyridin-3-ylamino)-1H-pyrazol-1-yl)pyrrolidin-1-yl)ethanone]	0.02
Cc1ccncc1-c1cc2cc(Nc3cnn([C@H]4CCN(C5COC5)C[C@@H]4O)c3)ncc2c(N)n1 (racemic) [Compound 220, (+/−)-trans-4-(4-(8-amino-6-(4-methylpyridin-3-yl)-2,7-naphthyridin-3-ylamino)-1H-pyrazol-1-yl)-1-(oxetan-3-yl)piperidin-3-ol]	0.592
Cc1ccncc1-c1cc2cc(Nc3cc(C(C)O)n(C)n3)ncc2c(N)n1 (racemic) [Compound 221, (+/−)-1-(3-(8-amino-6-(4-methylpyridin-3-yl)-2,7-naphthyridin-3-ylamino)-1-methyl-1H-pyrazol-5-yl)ethanol]	0.026
N#Cc1ccccc1-c1cc2cc(NC(=O)[C@H]3C[C@@H]3C#N)ncc2c(N)n1 (racemic) [Compound 224, (+/−)-trans-N-(8-amino-6-(2-cyanophenyl)-2,7-naphthyridin-3-yl)-2-cyanocyclopropanecarboxamide]	15.2
CC(C)(O)Cc1ccncc1-c1cc2cc(NC(=O)[C@H]3C[C@@H]3C#N)ncc2c(N)n1 (racemic) [Compound 225, (+/−)-trans-N-(8-amino-6-(4-(2-hydroxy-2-methylpropyl)pyridin-3-yl)-2,7-naphthyridin-3-yl)-2-cyanocyclopropanecarboxamide]	84.2
CNC(=O)c1cncc(-c2cc3cc(NC(=O)[C@@H]4C[C@@H]4F)ncc3c(N)n2)c1C (racemic) [Compound 226, cis-5-(1-amino-6-(-2-fluorocyclopropanecarboxamido)-2,7-naphthyridin-3-yl)-N,4-dimethylnicotinamide]	58.6
Cc1ccncc1-c1cc2cc(NC(=O)[C@@H]3C[C@H]3F)ncc2c(N)n1 (single isomer, unassigned) [Compound 107, (trans)-N-(8-amino-6-(4-methylpyridin-3-yl)-2,7-naphthyridin-3-yl)-2-fluorocyclopropane-1-carboxamide]	0.654
Cc1ccncc1-c1cc2cc(NC(=O)NC(C)CO)ncc2c(N)n1 (stereo not drawn) [Compound 117, l-(8-amino-6-(4-methylpyridin-3-yl)-2,7-naphthyridin-3-yl)-3-(1-hydroxypropan-2-yl)urea]	8.47
Cc1ccncc1-c1cc2cc(NC(=O)C3CC34CN(c3ncccc3C#N)C4)ncc2c(N)n1 (stereo not shown) [Compound 150, N-(8-amino-6-(4-methylpyridin-3-yl)-2,7-naphthyridin-3-yl)-5-(3-cyanopyridin-2-yl)-5-azaspiro[2.3]hexane-1-carboxamide]	0.77

Further lines, results first:

Ki [nM]	Compound
38.7	N#CCc1ccncc1-c1cc2cc(NC(=O)[C@H]3C[C@@H]3C#N)ncc2c(N)n1 (racemic) [Compound 227, (+/−)-trans-N-(8-amino-6-(4-(cyanomethyl)pyridin-3-yl)-2,7-naphthyridin-3-yl)-2-cyanocyclopropanecarboxamide]
11	COCc1ccncc1-c1cc2cc(NC(=O)[C@H]3C[C@@H]3C#N)ncc2c(N)n1 (racemic) [Compound 228, (+/−)-trans-N-(8-amino-6-(4-(methoxymethyl)pyridin-3-yl)-2,7-naphthyridin-3-yl)-2-cyanocyclopropanecarboxamide]
0.147	Cc1ccc(O)cc1-c1cc2cc(NC(=O)[C@H]3C[C@@H]3c3cnn(C)c3)ncc2c(N)n1 (racemic) [Compound 268, (+/−)-trans-N-[8-amino-6-(5-hydroxy-2-methylphenyl)-2,7-naphthyridin-3-yl]-2-(1-methyl-1H-pyrazol-4-yl)cyclopropane-1-carboxamide]
1.43	Cc1cc(C(=O)O)ncc1-c1cc2cc(NC(=O)[C@H]3C[C@@H]3c3cnn(C)c3)ncc2c(N)n1 (racemic) [Compound 342, (±)-trans-5-(1-amino-6-((1S,2S)-2-(1-methyl-1H-pyrazol-4-yl)cyclopropane-1-carboxamido)-2,7-naphthyridin-3-yl)-4-methylpicolinic acid]
2.44	CNC(=O)c1cc(C)c(-c2cc3cc(NC(=O)[C@H]4C[C@@H]4c4cnn(C)c4)ncc3c(N)n2)cn1 (racemic) [Compound 346, (±)-5-(1-amino-6-((trans)-2-(1-methyl-1H-pyrazol-4-yl)cyclopropane-1-carboxamido)-2,7-naphthyridin-3-yl)-N,4-dimethylpicolinamide]
5.62	Cn1cc([C@H]2C[C@@H]2C(=O)Nc2cc3c(Cl)c(-c4cnccc4CCO)nc(N)c3cn2)cn1 (single isomer, unassigned) [Compound 332]

Same assay, conditions: Table B1-2, read-out: HPK1 Ki, L = Lanth

Ki [nM]	Compound
14	Cc1cccc(CC#N)c1-c1cc2cc(NC(=O)[C@H]3C[C@@H]3c3cnn(C)c3)ncc2c(N)n1 (racemic) [Compound 382, (+/−)-trans-N-(8-amino-6-(2-(cyanomethyl)-6-methylphenyl)-2,7-naphthyridin-3-yl)-2-(1-methyl-1H-pyrazol-4-yl)cyclopropane-1-carboxamide]
0.78	Cc1ccnc(Cc2ccccc2)c1-c1cc2cc(NC(=O)[C@H]3C[C@@H]3c3cnn(C)c3)ncc2c(N)n1 (racemic) [Compound 427, (+/−)-trans-N-(8-amino-6-(2-benzyl-4-methylpyridin-3-yl)-2,7-naphthyridin-3-yl)-2-(1-methyl-1H-pyrazol-4-yl)cyclopropane-1-carboxamide]
29	Cc1ccc2c(c1-c1cc3cc(NC(=O)[C@H]4C[C@@H]4CC#N)ncc3c(N)n1)CC[C@@]2(C)O (single isomer, unassigned) [Compound 353]
0.22	Cc1cccc(Cl)c1-c1cc2cc(NC(=O)[C@H]3C[C@@H]3CC#N)ncc2c(N)n1 (single isomer, unassigned) [Compound 362]
8.1	Cc1cccc(CC#N)c1-c1cc2cc(NC(=O)[C@@H]3C[C@H]3c3cnn(C)c3)ncc2c(N)n1 (single isomer, unassigned) [Compound 381]
0.25	Cc1ccnc(Cc2ccccc2)c1-c1cc2cc(NC(=O)[C@@H]3C[C@H]3c3cnn(C)c3)ncc2c(N)n1 (single isomer, unassigned) [Compound 397]
30	Cc1cc(-n2cccn2)ncc1-c1cc2cc(NC(=O)[C@H]3C[C@@H]3c3cnn(C)c3)ncc2c(N)n1 (single isomer, unassigned) [Compound 398]
1.2	Cc1cc(N2CCC2=O)ncc1-c1cc2cc(NC(=O)[C@H]3C[C@@H]3c3cnn(C)c3)ncc2c(N)n1 (single isomer, unassigned) [Compound 400]
0.26	COC(=O)c1cc(C)c(-c2cc3cc(NC(=O)[C@H]4C[C@@H]4c4cnn(C)c4)ncc3c(N)n2)cn1 (single isomer, unassigned) [Compound 402]
1.9	Cc1cc(-c2ccn(C)n2)ncc1-c1cc2cc(NC(=O)[C@H]3C[C@@H]3c3cnn(C)c3)ncc2c(N)n1 (single isomer, unassigned) [Compound 404]
